# Measured values: PubChem BioAssay AID1996
# Details: buffer; pH 7.4; 200.0 µM
row,SMILES,solubility kinetic
1,CSc1sc(-c2ccnc(=S)[nH]2)c(-c2ccccc2)c1C#N,8.2 µg/mL
2,O=C(COC(=O)c1cnccn1)Nc1ccccc1-c1ccccc1,> 50 µg/mL
3,NC(=O)COC(=O)CNC(=O)c1sc2ccccc2c1Cl,44.8 µg/mL
4,COc1ccccc1NC(=O)c1ccccc1C(=O)N(C)Cc1ccccc1,1.3 µg/mL
5,O=c1[nH]c2ccccc2nc1NCc1ccccc1,3.9 µg/mL
6,Cc1ccc(S(=O)(=O)NCCC(=O)Nc2cccc(S(=O)(=O)N3CCCC3)c2)cc1C,30.5 µg/mL
7,O=C(NC1CC1)c1cc2cc3ccccc3nc2s1,0.9 µg/mL
8,Cc1cccc(Nc2nc(-c3ccc(O)cc3O)cs2)n1,4.7 µg/mL
9,COC(=O)c1c(C)[nH]c(C(=O)CC#N)c1C,27.2 µg/mL
10,CC(=O)c1ccc(S(=O)(=O)NCC(=O)NC(c2nc3ccccc3[nH]2)C(C)C)cc1 (stereo not given),> 64.3 µg/mL
11,CN(C)CCn1c(=S)[nH]c2ncccc2c1=O,35.8 µg/mL
12,CN1CCN2c3ccccc3CC3(C(=O)N(C)C(=O)N(C)C3=O)C2C1 (stereo not given),> 51.4 µg/mL
13,CN(C(=O)COC(=O)c1ccc2c(c1)OCO2)C1CCCCC1,> 47.9 µg/mL
14,O=C1CNC(=S)N1Cc1ccc(F)cc1,> 33.6 µg/mL
15,Cc1nc2cc(NC(=O)Nc3cccc([N+](=O)[O-])c3)ccc2n1C,0.6 µg/mL
16,COC(=O)c1ccc2[nH]c3c(c2c1)CC(C)CC3 (stereo not given),0.9 µg/mL
17,Cc1cc(C)nc(SCC(=O)c2ccc(C)c(C)c2)n1,19.3 µg/mL
18,COc1cccc(CNC(=O)COC(=O)C23CC4CC(CC(Cl)(C4)C2)C3)c1,21.1 µg/mL
19,O=C(c1ccccc1)c1cccc[n+]1[O-],> 29.9 µg/mL
20,COc1ccccc1NC(=O)Nc1cccnc1,34.6 µg/mL

row,SMILES,solubility kinetic
1,N#Cc1c(Cl)cccc1N1CCC(C(N)=O)CC1,> 39.6 µg/mL
2,COC(CNc1ccc([N+](=O)[O-])c(NCC(OC)OC)c1C#N)OC,19 µg/mL
3,Cc1ccc(SCC(=O)NCc2ccc(F)cc2)cc1,9.5 µg/mL
4,Cc1ccc2c(c1)-c1[nH]c(=S)ncc1CS2,3.8 µg/mL
5,O=C(O)/C=C/C(=O)NC1CCCCCCCCCCC1,> 42.2 µg/mL
6,COc1cccc(C(=O)OCCNC(=O)c2cccnc2)c1.Cl,43.3 µg/mL
7,CN(C)c1ccc(NC(=O)CCN2C(=O)c3cccc([N+](=O)[O-])c3C2=O)cc1,42.4 µg/mL
8,O=C(NCCc1ccc(Cl)cc1)c1ccc2nccnc2c1,4.8 µg/mL
9,CCOc1ccc(-n2c(-c3cccs3)nc3ccccc3c2=O)cc1,0.5 µg/mL
10,CNc1ccc(OC)cc1-n1cnc(-c2ccc([N+](=O)[O-])cc2)c1,0.6 µg/mL
11,COC(=O)[C@@H](NC(=O)NCCC1=CCCCC1)C(C)C,> 42.4 µg/mL
12,O=C(COC(=O)C1C2CC3OC(=O)C1C3C2)Nc1ccc(F)cc1 (stereo not given),> 50 µg/mL
13,O=C(COC(=O)c1cc(S(=O)(=O)Nc2ccccc2Cl)ccc1O)Nc1ccc(F)c(F)c1F,10 µg/mL
14,COc1ccc(CCNC(=O)CCc2ccsc2)cc1OC,> 47.9 µg/mL
15,CCNC(=O)CSc1nc2sccc2c(=O)n1-c1ccccc1,> 51.8 µg/mL
16,Cc1c(O)nc(SC2CC(=O)N(c3cc(Cl)cc(Cl)c3)C2=O)[nH]c1=O (stereo not given),> 60 µg/mL
17,CC(=O)c1ccc(NC(=O)C2CC(=O)N(C(C)C)C2)cc1 (stereo not given),> 43.3 µg/mL
18,c1ccc(-c2nc(N3CCOCC3)sc2-c2ccccc2)cc1,< 0.3 µg/mL
19,COP(=O)(NC(=O)C(Cl)(Cl)Cl)OC,> 40.6 µg/mL
20,CC(C)(C)NC(=S)N1CCC(C(=O)c2ccc(F)cc2)CC1,5.2 µg/mL

row,SMILES,solubility kinetic
1,CCOc1cc(C(=S)N2CCCC2)ccc1O,> 37.7 µg/mL
2,CCOCCOc1cccc(C(=O)NC(c2ccccc2)c2ccccc2)c1,< 0.8 µg/mL
3,CN(C)C(=O)CS(=O)(=O)c1ccc(Cl)cc1,32.7 µg/mL
4,COC(=O)[C@H](Cc1ccccc1)NC(=O)NCCc1ccccc1F,> 51.7 µg/mL
5,O=C(NCc1ccccn1)Nc1ccc(F)cc1F,> 39.5 µg/mL
6,COc1ccc(F)cc1S(=O)(=O)NCC1CCCO1 (stereo not given),> 43.4 µg/mL
7,Cc1cc(NC(=O)CCl)no1,> 26.2 µg/mL
8,CC1(C(=O)Nc2ccc(S(=O)(=O)Nc3ncccn3)cc2)CCCC1,> 54.1 µg/mL
9,O=C(NCc1ccc(Cl)cc1)C1CCN(c2cnccn2)CC1,> 49.6 µg/mL
10,Cc1cc(C(=O)CSc2nc(N)cc(=O)[nH]2)c(C)n1CC1CCCO1 (stereo not given),> 54.4 µg/mL
11,CC1(C)CC(=O)c2cnc(NC(=O)CSC(=S)N3CCCCC3)nc2C1,2.9 µg/mL
12,C=CCn1c(SCC(=O)Nc2ccc(C(=O)O)cc2)nc2scc(-c3ccccc3)c2c1=O,> 71.6 µg/mL
13,CSc1nsc(SCC(=O)Nc2ccc(F)cc2)n1,39.6 µg/mL
14,Cc1c(C=O)c2ccccn2c1C(=O)c1ccc(F)cc1,6.5 µg/mL
15,CC1(C)C2CCC1(C)C(NC(=O)/C=C/c1ccccc1)C2 (stereo not given),8.9 µg/mL
16,Cc1ccnc(SCC(=O)Nc2cc(C)on2)n1,> 39.6 µg/mL
17,CC(=O)N1CCN(c2ccc(NC(=O)c3ccco3)cc2)CC1,> 47 µg/mL
18,Cc1ccccc1CNC(=O)C1CCCN(c2cnccn2)C1 (stereo not given),44.3 µg/mL
19,Cc1cccc(C)c1OCC(=O)Nc1c(C)nn(C)c1C,> 43.1 µg/mL
20,CC(=O)c1c(C)n(-c2ccc(C)cc2C)c2ccc(O)cc12,< 0.6 µg/mL
